From US20230165836A1, “ALPHA-2 ADRENERGIC RECEPTOR AGONISTS FOR THE TREATMENT OF CANCER” (UNIVERSITÉ CATHOLIQUE DE LOUVAIN, priority 2020, published 2023)
Entries after “also recorded” stand apart in the source; their conditions may differ.

Columns and labels:
[1] = tested on: JAK2V617F mutated bone marrow; assay: Myelofibrosis by JAK2V617F bone marrow transplantation, platelet counts; type: in vivo, mice; conditions: 5 mg/kg daily for three weeks
Protocol: Murine femurs and tibias from JAK2V617F mutant mice were first harvested and cleaned thoroughly. Marrow cells were flushed into PBS with 2% fetal bovine serum using a 25G needle and syringe. Resulting cell suspensions were then filtered through a 40 uM cell strainer. Recipient mice were irradiated with two doses of 500 rad 4 h apart. 1 million of donor cells were injected into wild-type recipients by standard intravenous injection using a 27G insulin syringe. One week after bone marrow transplantation, mice were treated with guanabenz or clonidine at a dose of 5 mg/kg daily for three weeks. After three weeks of treatment, mice were dissected and peripheral blood was drawn by cardiac puncture, the platelet concentration was measured by Cell Counter Analyzer MS9-5V.

[2] = tested on: mammary gland tumor; assay: Tumor model: mammary gland tumor; type: in vivo, mice; conditions: mammary gland tumor (FIG. 22A, 23A)
Excerpt: (§1) FIGS. 23A-H is a set of curves showing the tumor growth of mice treated with PBS (Control, circles) or guanabenz (GBZ, triangles) in different tumor models: such as mammary gland tumor (FIG. 23A), hepatocellular carcinoma (FIG. 23B), T cell lymphoma (FIG. 23C), lung cancer (FIG. 23D), myeloma (FIG. 23E), mammary adenocarcinoma (FIG. 23F), renal cancer (FIG. 23G) and fibrosarcoma (FIG. 23H).

[3] = tested on: CT26 colon cancer; assay: CT26 colon cancer tumor growth (FIGS. 15-16); type: in vivo, C57BL/6J mice; conditions: CT26 colon cancer, FIGS. 15A, 16A
Excerpt: Tumor infiltration of CD8+cells evaluated at the day of sacrifice by FACS (FIG. 15B). Tumor growth of CT26 colon cancer in NSG mice treated with PBS (Control), clonidine, clonidine mixed with yohimbine, or yohimbine alone (FIG. 15C). FIGS. 16A-C is a set of curves and histograms showing the tumor growth of CT26 colon cancer in C57BL/6J mice treated with PBS (Control, circles), guanabenz (diamonds), guanabenz mixed with yohimbine (light grey inverted triangles), or yohimbine alone (dark grey inverted triangles) (FIG. 16A); the tumor infiltration of CD8+ cells evaluated at the day of sacrifice by FACS (FIG. 16B); and the tumor growth of CT26 colon cancer in NSG mice treated with PBS (Control), guanabenz, guanabenz mixed with yohimbine, or yohimbine alone (FIG. 16C). […] For evaluation of yohimbine on the effect of clonidine and guanabenz, the mice were randomized into different groups when tumors size arrived around 100 mm^3 and received daily injections of guanabenz (5 mg/kg, i.p.), yohimbine (10 mg/kg), a mix of guanabenz (5 mg/kg, i.p.) and yohimbine (10 mg/kg, i.p.), clonidine (5 mg/kg, i.p.), a mix of clonidine (5 mg/kg, i.p.) and yohimbine (10 mg/kg, i.p.) or vehicle control.

[4] = tested on: fibrosarcoma; assay: Tumor model: fibrosarcoma; type: in vivo, mice; conditions: fibrosarcoma (FIG. 22H, 23H)
Excerpt: as §1

[5] = tested on: MC38 colon carcinomas; assay: MC38 colon carcinoma in Adra2a KO mice; type: in vivo, C57BL/6 Adra2a KO mice; conditions: 5 mg/kg, i.p. daily from tumor size around 50 mm^3
Protocol: C57BL/6 Wildtype or C57BL/6 Adra2a KO mice bearing MC38 colon carcinomas received daily injections of vehicle control (PBS), clonidine (5 mg/kg, i.p.) or guanabenz (5 mg/kg, i.p.), when the tumor size was around 50 mm^3, until the day of sacrifice.

In the case of `Clc1cccc(Cl)c1N=C1NCCN1` [clonidine], the “platelet (PLT) counts” value [1] is reported as “significantly reduces the platelet (PLT) counts; also recorded: significantly reduced the high platelet counts”, the tumor growth [2] is reported as “strong tumor inhibition” and the tumor growth [3] is reported as “inhibited CT26 colon cancer tumor growth”. For the same compound, the tumor growth [4] was “strong tumor inhibition” and the “tumor inhibition in Adra2a KO mice” value [5] was “almost completely attenuated”.
